As usually defined, the EC90 is the concentration needed for an effect of 90%. By bioavailability is commonly meant dose-corrected exposure relative to a reference, in per cent. Higher therefore signals good availability. A word on the AUC(0-inf): it is total exposure, with the tail of the curve extrapolated. What is called AUC(0-t) is exposure summed from dosing to a finite time, without extrapolation to infinity. A high value points to more exposure.

Data set [1] deals with hemagglutinin of influenza virus (Influenza A virus (H1N1), UniProt Q0HD60). The format is cell-based. The following applies: for effect on hemolysis (negative controls): data not shown.
Data set [2] concerns influenza virus. In kind it is cell-based. The following applies: for reduction of virus yield: 3.16 µM, 48 hours, MDCK, TCID50.
Data set [3] deals with Influenza A/Mal/302/54 (H1N1). As to the kind of experiment: microbe, parasite or virus in culture. In kind it is cell-based. The following applies: H1N1, MDCK, 72 h, read-out: CPE (EC50) A/Mal/302/54 (H1N1).
For data set [4], the system named is Influenza A/PR/8/34 (H1N1). In words: microbe, parasite or virus in culture. The following applies: MDCK, 72 h, read-out: CPE (EC50) A/PR/8/34 (H1N1). The format is cell-based.
The subject of data set [5] is Influenza A/Hongkong/8/68 (H3N2). As to the kind of experiment: microbe, parasite or virus in culture. The format is cell-based, Influenza A virus. The settings on record: for EC50: Influenza A virus, H3N2, MDCK, 72 h, read-out: CPE (EC50) A/Hongkong/8/68 (H3N2).
Data set [6] relates to Influenza A/Human/Hubei/3/2005 (H3N2). As to the kind of experiment: microbe, parasite or virus in culture. In kind it is cell-based, Influenza A virus. The following applies: for EC50: Influenza A virus, H3N2, MDCK, 72 h, read-out: CPE (EC50) A/Human/Hubei/3/2005 (H3N2).
The target in data set [7] is Bromelain-cleaved HA (BHA) (Influenza A virus (H1N1), UniProt Q0HD60). In kind it is biochemical.
Data set [8] relates to Influenza A/Weiss/43 (H1N1). In kind it is cell-based, Influenza A virus.
Data set [9] relates to viral hemagglutinin binding to sialic acid receptors of chicken erythrocytes. In kind it is cell-based, influenza virus. The following applies: 10 µM, regardless of viral dilution; data not shown.
The test system of data set [10] is Influenza A/Weiss/43 (H1N1). The format is cell-based, Influenza A virus. This is another data set of the same source.
Data set [11] relates to Influenza A/New Jersey/8/76 (H1N1). In words: microbe, parasite or virus in culture. The following applies: H1N1, MDCK, 72 h, read-out: CPE (EC50) A/New Jersey/8/76 (H1N1). In kind it is cell-based.
Data set [12] is described as follows: Repeated oral dosing of mice without virus challenge (survival, body weight). In kind it is in vivo. The following applies: 200 mg/kg and 50 mg/kg orally twice a day for 7 days, monitored 14 days. An excerpt: Survival of the treated animals and body weight were monitored for 14 days starting from the first day of compound dosing.
Data set [13] concerns influenza virus. As to the kind of experiment: microbe, parasite or virus in culture. The format is cell-based. The following applies: unidentified influenza virus, read-out: in vitro EC90.
The conditions of data set [14]: mouse, in vivo.
Data set [15] can be described thus: in vivo. The following applies: male, CD-1, mouse.

Entries after “also recorded” stand apart in the source; their conditions may differ.

Sequence of Bromelain-cleaved HA (BHA) (Q0HD60 18-343, added parts left off): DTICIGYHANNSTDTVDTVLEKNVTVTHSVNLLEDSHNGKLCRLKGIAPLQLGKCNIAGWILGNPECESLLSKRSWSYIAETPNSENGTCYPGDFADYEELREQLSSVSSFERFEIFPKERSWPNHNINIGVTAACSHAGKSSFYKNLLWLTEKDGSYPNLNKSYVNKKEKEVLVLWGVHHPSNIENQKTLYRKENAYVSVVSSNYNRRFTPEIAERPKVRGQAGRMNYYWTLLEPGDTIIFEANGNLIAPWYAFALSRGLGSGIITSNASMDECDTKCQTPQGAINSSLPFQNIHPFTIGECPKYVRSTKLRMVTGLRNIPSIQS
Sequence of hemagglutinin of influenza virus (Q0HD60 18-343, added parts left off): as above

Take `CCOC(=O)C1=C[C@@H](OC(CC)CC)[C@H](NC(C)=O)[C@@H](N)C1` [Oseltamivir]: the “effect on hemolysis (negative controls)” value in data set [1] is recorded as “did not show any effect on hemolysis”. In data set [2], the “reduction of virus yield” value is 5 log.

In the case of `CC1(C)CC(O)CC(C)(CNc2cccc(S(N)(=O)=O)c2)C1` (stereo not shown) [RO5464466, 3-[(5-Hydroxy-1,3,3-trimethyl-cyclohexylmethyl)-amino]-benzenesulfonamide], the EC50 in data set [3] came to 660 nM. For the same compound, the EC50 in data set [4] turned out to be 580 nM. Further, in data set [5], the “inhibitory effect on replication of A/Hongkong/8/68 (H3N2) in CPE assay” value is listed as “failed to exhibit an apparent inhibitory effect” and the EC50 is above 100000 nM. In data set [6], the “inhibitory effect on replication of A/Human/Hubei/3/2005 (H3N2) in CPE assay” value is “failed to exhibit an apparent inhibitory effect” and the EC50 was above 100000 nM. Besides, in data set [1] (10 µM, pH 5.03, 5.05, 5.1 and 5.2), the HA-mediated hemolysis entry is “completely blocked”. For the same compound, in data set [7], the BHA trypsin sensitivity entry was “+”; the “protection of BHA from trypsin digestion after acidification” value (“protection of BHA from trypsin digestion” for short) is recorded as “completely protected HA from trypsin digestion”; the “protection of BHA from trypsin-caused degradation at different pH” value is given as “effectively protected BHA from trypsin-caused degradation throughout the tested pH values, except pH 4.5”. Besides, in [8], the “effect on virus replication in one cycle” value was “completely blocks virus replication”. For the same compound, the “inhibitory effect on hemagglutination” value in [9] is reported as “did not have an inhibitory effect on hemagglutination”. For the same compound, in data set [2], the “dynamics of progeny virus production” value is “strong inhibition at all time points” and the “reduction of virus yield” value worked out at 8 log. Also, the plaque formation entry in data set [10] is reported as “completely protected cell monolayer against cell death (no visible plaques); also recorded: still inhibited virus infection”.

Turning to `CC1(C)C[C@H](O)C[C@](C)(CNc2ccc(Cl)c(S(N)(=O)=O)c2)C1` [RO5487624], the EC50 in data set [11] was 90 nM; in data set [3], 450 nM; in [4], 210 nM; in [5], above 100000 nM; in data set [6] it was above 100000 nM. Also, in data set [7], the BHA trypsin sensitivity entry is given as “+”. Also, in data set [7], the “protection of BHA from trypsin digestion” value is “completely protected HA from trypsin digestion”. The “animal death and body weight changes” value in data set [12] was “did not find any animal death and statistically significant body weight changes”. Further, the EC90 in data set [13] is 300 nM. The “C max and AUC in plasma versus oral dose” value in data set [14] was “increased in a dose-dependent manner”. This compound returned a bioavailability in [15] above 70%. For the same compound, the AUC(0-inf) in [15] (iv, 2 mg/kg) was found to be 629 ng·h/mL. In data set [15] (iv, 2 mg/kg), this compound registered an AUC(0-t) of 587 ng·h/mL.

Regarding `NC(=O)c1ncn([C@@H]2O[C@H](CO)[C@@H](O)[C@H]2O)n1` [Ribavirin], the “effect on hemolysis (negative controls)” value in data set [1] was “did not show any effect on hemolysis”. Moreover, in [7], the “protection of BHA from trypsin digestion” value is listed as “failed to show a protective effect on BHA”. Besides, in data set [2], the “dynamics of progeny virus production” value is “became weaker” and the “inhibition of progeny virus production” value is given as “strongly inhibited progeny virus production”.

The record behind these values is publication PMC3240648, “Inhibition of Influenza A Virus (H1N1) Fusion by Benzenesulfonamide Derivatives Targeting Viral Hemagglutinin” (PLoS ONE, 2011).
